Read-outs that look alike come from different tables or passages of the source.
Key:
[1] = parameters: method as in PMID 21332655; details: monotherapy, salvage regimens in Korea, retrospective data; cited from earlier work
[2] = Pharmacokinetics of alpelisib and capecitabine in plasma (LC-MS/MS, non-compartmental); type: in vivo, human; details: for half-life / AUC(0-t) / Cmax: mean (range); for AUC(0-t): read-out: AUC0-6h; for AUC: range across dose escalation (dose levels 0 to 2), read-out: area under the concentration-time-curve (AUC)
Experimental: The pharmacokinetic (PK) analysis was conducted in all patients who received at least one dose of alpelisib and capecitabine combination therapy. Blood samples were collected at specified time points, including pre-dose, 1, 2, 4, and 6 hours post-dose, on day 1 of cycle 1. Measurements of alpelisib and capecitabine were carried out with a validated LC-MS/MS assay. PK parameters, including maximum plasma concentration (Cmax), time to reach maximum plasma concentration (tmax), area under the plasma concentration-time curve (AUC), and elimination half-life (t1/2), were calculated using non-compartmental methods. […] The data were presented as the mean (range) and standard deviation (SD).

[3] = tested on: advanced solid malignancies with PIK3CA alterations; parameters: method as in PMID 29401002; details: single-agent alpelisib, once daily; first-in-human phase I; cited from earlier work
[4] = human, plasma, oral, Dose level 0 (n=3): alpelisib 200mg+capecitabine 1000mg/m^2, day 1 of cycle 1
[5] = human, plasma, oral, Dose level 0 (n=3): alpelisib 200mg+capecitabine 1000mg/m^2, plasma, day 1 of cycle 1
[6] = human, plasma, oral, Dose level 1 (n=6): alpelisib 300mg+capecitabine 1000mg/m^2, day 1 of cycle 1
[7] = human, plasma, oral, Dose level 1 (n=6): alpelisib 300mg+capecitabine 1000mg/m^2, plasma, day 1 of cycle 1
[8] = human, plasma, oral, across dose levels 0, 1 and 2, read-out: time to reach peak concentration (tmax)

| Compound | disease control rate [1] [%] | half-life [2, 4] [h] | AUC(0-t) [2, 4] [ng·h/mL] | Cmax [2, 5] [ng/mL] | half-life [2, 6] [h] | AUC(0-t) [2, 6] [ng·h/mL] | Tmax ([2]; human, plasma, oral, Dose level 1 (n=6): alpelisib 300mg+capecitabine 1000mg/m^2, day 1 of cycle 1, ± SD, read-out: tmax) [h] | Cmax [2, 7] [ng/mL] | Tmax [2, 8] [h] | AUC ([2]; human, plasma, oral) [ng·h/mL] | MTD [3] [mg] | Tmax ([2]; Dose level 0 (n=3): alpelisib 200mg+capecitabine 1000mg/m^2, day 1 of cycle 1, ± SD) [h] | Tmax ([2]; Dose level 1 (n=6): alpelisib 300mg+capecitabine 1000mg/m^2, day 1 of cycle 1, ± SD) [h] | Alpelisib exposure (Cmax and AUC0-12) with concomitant capecitabine ([2]; co-administration in patients) |
| --- | --- | --- | --- | --- | --- | --- | --- | --- | --- | --- | --- | --- | --- | --- |
| CCCCCOC(=O)Nc1nc(=O)n([C@@H]2O[C@H](C)[C@@H](O)[C@H]2O)cc1F [capecitabine] | 60 | 0.89 | 2670 | 2500 | 0.63 | 6000 | 2 | 4160 | 1 to 2 | 2670 to 8710 | – | – | – | – |
| Cc1nc(NC(=O)N2CCC[C@H]2C(N)=O)sc1-c1ccnc(C(C)(C)C(F)(F)F)c1 [alpelisib] | – | 6.5 | 4930 | 1170 | 9.29 | 5070 | – | 1240 | 2 to 4 | 4930 to 8190 | 400 | 2 ± 0.6 | 4 ± 1.8 | unaffected |

Reference: article PMC11272611, “Phase Ib and pharmacokinetics study of alpelisib, a PIK3CA inhibitor, and capecitabine in patients with advanced solid tumors” (Frontiers in Oncology, 2024)
